# Reference: patent US9714231B2, “Pyrrolidine GPR40 modulators” (BRISTOL-MYERS SQUIBB COMPANY, priority 2012, dated 2017)
# Where a name gives a salt, the structure may show the parent alone. Read-outs that look alike come from different tables or passages of the source.
# Assays:
# [1] = biological target: T1, human GPR40 (Homo sapiens, UniProt O14842); test: FDSS-based intracellular calcium assay (Human GRP40 in vitro assay); type: cell-based; parameters: 3xFLAG; expressed in transfected cells; conditions: cells expressing GPR40, intracellular Ca2+ response, FDSS reader; read-out: hGPR40 EC50
# T1 sequence (O14842 whole entry): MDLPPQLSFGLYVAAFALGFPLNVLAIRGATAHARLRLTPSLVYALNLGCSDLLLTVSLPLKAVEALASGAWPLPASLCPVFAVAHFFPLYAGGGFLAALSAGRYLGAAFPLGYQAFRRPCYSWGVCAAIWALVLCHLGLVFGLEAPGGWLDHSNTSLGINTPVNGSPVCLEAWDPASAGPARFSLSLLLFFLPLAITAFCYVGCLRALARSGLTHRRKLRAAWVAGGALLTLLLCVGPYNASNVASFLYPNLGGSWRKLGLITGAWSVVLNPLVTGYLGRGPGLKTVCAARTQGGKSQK
# Summary of the method: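 GPR40-expressing cells, plated overnight in serum-free phenol red-free DMEM, loaded with Fluo-3 in HBSS with 1.7 mM probenecid for 30 min at 37° C. Compounds in DMSO, diluted in assay buffer, added as 3× solutions; intracellular Ca^2+ response read on FDSS.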
# [2] = biological target: T1, human GPR40
compound,measurement,setting,value
"COc1ccc(F)c(N2CCC(Oc3ccc(N4CC(C(F)(F)F)C(C)C4CC(=O)O)cc3)CC2)c1 (single isomer, unassigned) [Example 26, Isomer 1, 2-((2,3-trans,3,4-trans)-1-(4-((1-(2-Fluoro-5-methoxyphenyl)piperidin-4-yl)oxy)phenyl)-3-methyl-4-(trifluoromethyl)pyrrolidin-2-yl)acetic acid, HCl]",EC50,[1],0.22 µM
same,EC50,[2],0.14 µM
"CCOc1ccc(F)c(N2CCC(Oc3ccc(N4C[C@H](C(F)(F)F)C[C@@H]4CC(=O)O)cc3)C(CC(C)C)C2)c1 (single isomer, unassigned) [Example 35, Isomer 2, HCl]",EC50,[1],0.33 µM
same,EC50,[2],0.017 µM
"COc1ccc(F)c(N2CCC(Oc3ccc(N4CCCC4CC(=O)O)cc3)CC2)c1 (single isomer, unassigned) [Example 48, Isomer 2, 2-(1-(4-((1-(2-Fluoro-5-methoxyphenyl)piperidin-4-yl)oxy)phenyl)pyrrolidin-2-yl)acetic acid]",EC50,[1],1.4 µM
same,EC50,[2],2.5 µM
"COc1ccc(F)c(N2CCC(Oc3ccc(N4C[C@H](OC)C[C@@H]4CC(=O)O)cc3)C(C)C2)c1 (single isomer, unassigned) [Example 52, Isomer 2]",EC50,[1],0.6 µM
same,EC50,[2],0.14 µM
"COc1ccc(F)c(N2CCC(Oc3ccc(N4CC(F)(F)C[C@@H]4CC(=O)O)cc3)C(C)C2)c1 (single isomer, unassigned) [Example 53, Isomer 2, HCl]",EC50,[1],0.049 µM
same,EC50,[2],0.049 µM
"COc1ccc(C2CCCC2(C)C)c(N2CCC(Oc3ccc(N4C[C@H](OC)C[C@@H]4CC(=O)O)cc3)CC2)c1 (single isomer, unassigned) [Example 65, Isomer 1]",EC50,[1],0.033 µM
same,EC50,[2],0.01 µM
"COc1cc(N2CCC(Oc3ccc(N4C[C@H](OC)[C@@H](C)[C@@H]4CC(=O)O)cn3)CC2)c(C2CCCC2(C)C)cn1 (single isomer, unassigned) [Example 151, Isomer 1, HCl]",EC50,[1],0.038 µM
same,EC50,[2],0.004 µM
"COc1ccc(F)c(N2CCC(Oc3ccc(N4C[C@H](C(F)(F)F)C[C@@H]4CC(=O)O)cc3)CC2)c1 [Example 1, 2-((2R,4R)-1-(4-((1-(2-Fluoro-5-methoxyphenyl)piperidin-4-yl)oxy)phenyl)-4-(trifluoromethyl)pyrrolidin-2-yl)acetic acid, HCl]",EC50,[1],0.21 µM
same,EC50,[2],0.31 µM
"COc1ccc(F)c(N2CCC(Oc3ccc(N4C[C@H](OC)C[C@@H]4CC(=O)O)cc3)CC2)c1 [Example 4, 2-((2R,4R)-1-(4-((1-(2-Fluoro-5-methoxyphenyl)piperidin-4-yl)oxy)phenyl)-4-methoxypyrrolidin-2-yl)acetic acid, HCl]",EC50,[1],0.17 µM
same,EC50,[2],0.24 µM
"COc1ccc(F)c(N2CCC(Cc3ccc(N4C[C@H](C(F)(F)F)C[C@@H]4CC(=O)O)cc3)CC2)c1 [Example 16, 2-((2R,4R)-1-(4-((1-(2-Fluoro-5-methoxyphenyl)piperidin-4-yl)methyl)phenyl)-4-(trifluoromethyl)pyrrolidin-2-yl)acetic acid, HCl]",EC50,[1],0.53 µM
same,EC50,[2],0.073 µM
"COc1ccc(F)c(N2CCC(Oc3ccc(N4C[C@H](OC(C)C)C[C@@H]4CC(=O)O)cc3)C(C)C2)c1 (stereo partly drawn) [Example 38, 2-((2R,4R)-1-(4-(((3,4-trans)-1-(2-Fluoro-5-methoxyphenyl)-3-methylpiperidin-4-yl)oxy)phenyl)-4-isopropoxypyrrolidin-2-yl)acetic acid, TFA]",EC50,[1],0.069 µM
same,EC50,[2],0.073 µM
"CCOc1ccc(F)c(N2CCC(Oc3ccc(N4CC(C)(OC)C[C@@H]4CC(=O)O)cc3)C(C)C2)c1 (stereo partly drawn) [Example 47, 2-((2R)-1-(4-(((3,4-trans)-1-(5-Ethoxy-2-fluorophenyl)-3-methylpiperidin-4-yl)oxy)phenyl)-4-methoxy-4-methylpyrrolidin-2-yl)acetic acid, HCl]",EC50,[1],0.17 µM
same,EC50,[2],0.018 µM
"COc1ccc(C)c(N2CCC(Oc3ccc(N4C[C@H](OC)C[C@@H]4CC(=O)O)cc3)CC2)c1 [Example 57, 2-((2R,4R)-4-Methoxy-1-(4-((1-(5-methoxy-2-methylphenyl)piperidin-4-yl)oxy)phenyl)pyrrolidin-2-yl)acetic acid, TFA]",EC50,[1],0.16 µM
same,EC50,[2],0.083 µM
"COc1ccc(C2CC2)c(N2CCC(Oc3ccc(N4C[C@H](OC)C[C@@H]4CC(=O)O)cc3)CC2)c1 [Example 59, 2-((2R,4R)-1-(4-(1-(2-Cyclopropyl-5-methoxyphenyl)piperidin-4-yloxy)phenyl)-4-methoxypyrrolidin-2-yl)acetic acid, TFA]",EC50,[1],0.29 µM
same,EC50,[2],0.038 µM
"COc1cc(N2CCC(Oc3ccc(N4CC[C@@H](C)[C@@H]4CC(=O)O)cc3)C(C)C2)c(Cl)cn1 (stereo partly drawn) [Example 154, 2-((2S,3R)-1-(4-(((3,4-trans)-1-(5-Chloro-2-methoxypyridin-4-yl)-3-methylpiperidin-4-yl)oxy)phenyl)-3-methylpyrrolidin-2-yl)acetic acid, TFA]",EC50,[1],0.11 µM
"COc1cc(N2CCC(Oc3ccc(N4C[C@H](F)[C@@H](C)[C@@H]4CC(=O)O)cc3F)C(C)C2)c(Cl)cn1 (stereo partly drawn) [Example 156, 2-((2S,3S,4R)-1-(4-(((3,4-trans)-1-(5-Chloro-2-methoxypyridin-4-yl)-3-methylpiperidin-4-yl)oxy)-3-fluorophenyl)-4-fluoro-3-methylpyrrolidin-2-yl)acetic acid]",EC50,[1],0.063 µM
"CCO[C@H]1CN(c2ccc(OC3CCN(c4cc(OC)ncc4Cl)CC3C)cc2)[C@@H](CC(=O)O)[C@@H]1C (stereo partly drawn) [Example 158, 2-((2S,3S,4R)-1-(4-(((3,4-trans)-1-(5-Chloro-2-methoxypyridin-4-yl)-3-methylpiperidin-4-yl)oxy)phenyl)-4-ethoxy-3-methylpyrrolidin-2-yl)acetic acid, TFA]",EC50,[1],0.16 µM
"COc1cc(N2CCC(Oc3ncc(N4C[C@H](OC)[C@@H](C)[C@@H]4CC(=O)O)cc3F)C(C)C2)c(Cl)cn1 (stereo partly drawn) [Example 159, 2-((2S,3S,4R)-1-(6-(((3,4-trans)-1-(5-Chloro-2-methoxypyridin-4-yl)-3-methylpiperidin-4-yl)oxy)-5-fluoropyridin-3-yl)-4-methoxy-3-methylpyrrolidin-2-yl)acetic acid]",EC50,[1],0.085 µM
"CCCCOc1cc(N2C[C@H](OC)[C@@H](C)[C@@H]2CC(=O)O)cnc1OC1CCN(c2cc(OC)ncc2Cl)CC1C (stereo partly drawn) [Example 160, 2-((2S,3S,4R)-1-(5-Butoxy-6-(((3,4-trans)-1-(5-chloro-2-methoxypyridin-4-yl)-3-methylpiperidin-4-yl)oxy)pyridin-3-yl)-4-methoxy-3-methylpyrrolidin-2-yl)acetic acid]",EC50,[1],0.086 µM
"CCCCCO[C@H]1CN(c2ccc(OC3CCN(c4cc(OC)ncc4Cl)CC3C)cc2)[C@@H](CC(=O)O)[C@@H]1C (stereo partly drawn) [Example 162, 2-((2S,3S,4R)-1-(4-(((3,4-trans)-1-(5-Chloro-2-methoxypyridin-4-yl)-3-methylpiperidin-4-yl)oxy)phenyl)-3-methyl-4-(pentyloxy)pyrrolidin-2-yl)acetic acid, TFA]",EC50,[1],0.063 µM
"COc1cc(N2CCC(Oc3ncc(N4C[C@H](F)[C@@H](C)[C@@H]4CC(=O)O)cc3F)C(C)C2)c(Cl)cn1 (stereo partly drawn) [Example 164, 2-((2S,3S,4R)-1-(6-(((3,4-trans)-1-(5-Chloro-2-methoxypyridin-4-yl)-3-methylpiperidin-4-yl)oxy)-5-fluoropyridin-3-yl)-4-fluoro-3-methylpyrrolidin-2-yl)acetic acid]",EC50,[1],0.11 µM
"COc1cc(N2CCC(Oc3ncc(N4C[C@H](OC)[C@@H](C)[C@@H]4CC(=O)O)cc3C(F)(F)F)C(C)C2)c(Cl)cn1 (stereo partly drawn) [Example 165, 2-((2S,3S,4R)-1-(6-(((3,4-trans)-1-(5-Chloro-2-methoxypyridin-4-yl)-3-methylpiperidin-4-yl)oxy)-5-(trifluoromethyl)pyridin-3-yl)-4-methoxy-3-methylpyrrolidin-2-yl)acetic acid]",EC50,[1],0.047 µM
"COc1cc(N2CCC(Oc3ccc(N4C[C@H](OC)[C@@H](C)[C@@H]4CC(=O)O)nc3)C(C)C2)c(Cl)cn1 (stereo partly drawn) [Example 166, 2-((2S,3S,4R)-1-(5-(((3,4-trans)-1-(5-Chloro-2-methoxypyridin-4-yl)-3-methylpiperidin-4-yl)oxy)pyridin-2-yl)-4-methoxy-3-methylpyrrolidin-2-yl)acetic acid]",EC50,[1],0.42 µM
"COc1cc(N2CCC(Oc3ncc(N4C[C@H](OC)[C@@H](C)[C@@H]4CC(=O)O)cc3OC(C)C)C(C)C2)c(Cl)cn1 (stereo partly drawn) [Example 167, 2-((2S,3S,4R)-1-(6-(((3,4-trans)-1-(5-Chloro-2-methoxypyridin-4-yl)-3-methylpiperidin-4-yl)oxy)-5-isopropoxypyridin-3-yl)-4-methoxy-3-methylpyrrolidin-2-yl)acetic acid]",EC50,[1],0.045 µM
"COc1cc(N2CCC(Oc3ncc(N4C[C@H](OC)[C@@H](C)[C@H]4CC(=O)O)cc3F)C(C)C2)c(Cl)cn1 (stereo partly drawn) [Example 168, 2-((2R,3S,4R)-1-(6-(((3,4-trans)-1-(5-Chloro-2-methoxypyridin-4-yl)-3-methylpiperidin-4-yl)oxy)-5-fluoropyridin-3-yl)-4-methoxy-3-methylpyrrolidin-2-yl)acetic acid]",EC50,[1],0.5 µM
"COc1cc(N2CCC(Oc3cnc(N4C[C@H](OC)[C@@H](C)[C@@H]4CC(=O)O)nc3)C(C)C2)c(Cl)cn1 (stereo partly drawn) [Example 170, 2-((2S,3S,4R)-1-(5-(((3,4-trans)-1-(5-Chloro-2-methoxypyridin-4-yl)-3-methylpiperidin-4-yl)oxy)pyrimidin-2-yl)-4-methoxy-3-methylpyrrolidin-2-yl)acetic acid]",EC50,[1],1.7 µM
"COc1cc(N2CCC(Oc3cnc(N4C[C@H](OC)[C@@H](C)[C@@H]4CC(=O)O)c(F)c3)C(C)C2)c(Cl)cn1 (stereo partly drawn) [Example 171, 2-((2S,3S,4R)-1-(5-(((3,4-trans)-1-(5-Chloro-2-methoxypyridin-4-yl)-3-methylpiperidin-4-yl)oxy)-3-fluoropyridin-2-yl)-4-methoxy-3-methylpyrrolidin-2-yl)acetic acid]",EC50,[1],0.41 µM
